Assay results: patent publication US20090143361A1, “Pyrido[3,2-E]Pyrazines, Process For Preparing The Same, And Their Use As Inhibitors Of Phosphodiesterase 10” (ELBION GMBH, priority 2007, published 2009)

What follows are molecules tested against PDE10 from pig striatum (Sus scrofa, UniProt A0A287B941) (assay: Inhibition of PDE10 from pig striatum ([3H]-cAMP SPA)). Conditions: Table 7; read-out: PDE10 pig IC50.
Format: biochemical
Experimental: Phosphodiesterase isoenzyme 10 (PDE10) activity was determined in preparations of human recombinant PDE10A and PDE10 from pig striatum, respectively.
Striatum from male hybrid pigs (150 kg) were collected and frozen at −70° C.
At the day of preparation 0.5 g striatum was homogenised in 10 ml 50 mM Tris/Mg-buffer at 4° C. and centrifuged for one hour at 100000 g. The supernatant was removed and the pellet was resuspended in the same buffer, but containing 1% Triton and incubated for 45 min at 4° C. The membrane fraction was applied onto a 5 ml Hi Trap™ QHP column at the Akta-FPLC. After washing the column the bound PDE protein was eluted with an increasing sodium chloride gradient (O mM-500 mM sodium chloride) in 50 mM Tris/Mg-buffer at 4° C. in the presence of 1% Triton. […] The fractions with PDE10-activity were pooled and frozen in aliquots until use at −20° C.
(§1) PDE10 activity was determined in a one step procedure in microtiterplates. […] Nonspecific activity was tested without the enzyme. The reaction was initiated by addition of the substrate solution and was carried out at 37° C. for 30 minutes. Enzymatic activity was stopped by addition of 25 μl YSi-SPA-beads (Amersham-Pharmacia). One hour later the mixture was measured in a liquid scintillation counter for microtiterplates (Microbeta Trilux). To pipette the incubation mixture a robot Biomek (Fa. Beckman) is used. […] For determination of IC50 values the Hill-plot, 2-parameter-model, was used.
The phosphodiesterase isoenzyme 10 (PDE10) activity was determined in preparations of rat, pig and guinea pig striatum respectively. Striatum from male Wistar rats (180-200 g), male hybrid pigs (150 kg) and male guinea pigs (CRL (HA), 500 g) respectively were collected and frozen at −70° C.
At the day of preparation 0.5 g striatum was homogenized in 10 ml 50 mM Tris/Mg-buffer at 4° C. and centrifuged for one hour at 100000 g. The supernatant is called the cytosolic fraction and was removed and stored on ice. The pellet was resuspended in the same buffer, but containing 1% Triton and incubated for 45 min at 4° C. Both fractions were independently applied onto a 5 ml Hi Trap™ QHP column at the Akta-FPLC. After washing the columns the bound PDE protein was eluted with an increasing sodium chloride gradient (0 mM-500 mM sodium chloride) in 50 mM Tris/Mg-buffer at 4° C. for the cytosolic fraction and in the presence of 1% Triton for the membrane fraction. […] The fractions with PDE10-activity were pooled and frozen in aliquots until use at −20° C.
as §1, with “YSi-SPA beads” for “YSi-SPA-beads”

Compared with `Cc1nc(CCC(F)(F)F)n2c1c(Cl)nc1ccc(OCC(F)(F)F)nc12` [Example 1, 6-Chloro-7-methyl-2-(2,2,2-trifluoroethoxy)-9-(3,3,3-trifluoropropyl)imidazo[1,5-a]pyrido[3,2-e]pyrazine], `CCCc1nc(C)c2c(Cl)nc3ccc(OCC)nc3n12` [Example 2, 6-Chloro-2-ethoxy-7-methyl-9-propylimidazo[1,5-a]pyrido[3,2-e]pyrazine] is lower in IC50: 10 to 100 nM for the first, less than 10 nM for the second. The second is the more potent here.

Compared with `CCCc1nc(C)c2c(C)nc3ccc(OCC)nc3n12` [Example 3, 2-Ethoxy-6,7-dimethyl-9-propylimidazo[1,5-a]pyrido[3,2-e]pyrazine], `CCOc1ccc2nc(C)c3c(C)nc(-c4ccccc4Cl)n3c2n1` [Example 4, 9-(2-Chlorophenyl)-2-ethoxy-6,7-dimethylimidazo[1,5-a]pyrido[3,2-e]pyrazine] is lower in IC50: 10 to 100 nM for the first, less than 10 nM for the second. The second is the more potent here.

`COc1ccc2nc(C)c3c(C)nc(-c4cccc(F)c4)n3c2n1` [Example 5, 9-(3-Fluorophenyl)-2-methoxy-6,7-dimethylimidazo[1,5-a]pyrido[3,2-e]pyrazine] and `COc1ccc2nc(C)c3c(C)nc(-c4ccc(F)nc4)n3c2n1` [Example 9, 9-(6-Fluoropyridin-3-yl)-2-methoxy-6,7-dimethylimidazo[1,5-a]pyrido[3,2-e]pyrazine] fall in the same range of IC50: 10 to 100 nM for the first, 10 to 100 nM for the second.

`COc1ccc2nc(C)c3c(C)nc(-c4cc(Cl)cc(Cl)c4)n3c2n1` [Example 6, 9-(3,5-Dichlorophenyl)-2-methoxy-6,7-dimethylimidazo[1,5-a]pyrido[3,2-e]pyrazine] and `COc1ccc2nc(C)c3c(C)nc(-c4ccc(Cl)c(Cl)c4)n3c2n1` [Example 7, 9-(3,4-Dichlorophenyl)-2-methoxy-6,7-dimethylimidazo[1,5-a]pyrido[3,2-e]pyrazine] fall in the same range of IC50: 10 to 100 nM for the first, 10 to 100 nM for the second.

First: COc1ccc2nc(C)c3c(C)nc(-c4ccc(F)cc4F)n3c2n1 [Example 8, 9-(2,4-Difluorophenyl)-2-methoxy-6,7-dimethylimidazo[1,5-a]pyrido[3,2-e]pyrazine]
Second: COc1ccc2nc(C)c3c(C)nc(-c4ccc(C)cc4F)n3c2n1 [Example 14, 9-(2-Fluoro-4-methylphenyl)-2-methoxy-6,7-dimethylimidazo[1,5-a]pyrido[3,2-e]pyrazine]
The IC50 of the first is higher: 10 to 100 nM for the first, less than 10 nM for the second.

`COc1ccc2nc(C)c3c(C)nc(-c4cccnc4)n3c2n1` [Example 10, 2-Methoxy-6,7-dimethyl-9-pyridin-3-ylimidazo[1,5-a]pyrido[3,2-e]pyrazine] and `COc1ccc2nc(C)c3c(C)nc(-c4ccncc4)n3c2n1` [Example 11, 2-Methoxy-6,7-dimethyl-9-pyridin-4-ylimidazo[1,5-a]pyrido[3,2-e]pyrazine] fall in the same range of IC50: 10 to 100 nM for the first, 10 to 100 nM for the second.

`COc1ccc2nc(C)c3c(C)nc(-c4ccc(C)cc4Cl)n3c2n1` [Example 12, 9-(2-Chloro-4-methylphenyl)-2-methoxy-6,7-dimethylimidazo[1,5-a]pyrido[3,2-e]pyrazine] and `COc1ccc(-c2nc(C)c3c(C)nc4ccc(OC)nc4n23)c(Cl)c1` [Example 18, 9-(2-Chloro-4-methoxyphenyl)-2-methoxy-6,7-dimethylimidazo[1,5-a]pyrido[3,2-e]pyrazine] cannot be ordered by IC50: less than 10 nM for the first, less than 10 nM for the second.

`COc1ccc2nc(C)c3c(C)nc(-c4ccc(Cl)cc4C)n3c2n1` [Example 13, 9-(4-Chloro-2-methylphenyl)-2-methoxy-6,7-dimethylimidazo[1,5-a]pyrido[3,2-e]pyrazine] and `COc1ccc2nc(C)c3c(C)nc(-c4cc(F)ccc4Cl)n3c2n1` [Example 22, 9-(2-Chloro-5-fluorophenyl)-2-methoxy-6,7-dimethylimidazo[1,5-a]pyrido[3,2-e]pyrazine] cannot be ordered by IC50: less than 10 nM for the first, less than 10 nM for the second.

`COc1ccc2nc(C)c3c(C)nc(-c4cccc(OC)c4F)n3c2n1` [Example 15, 9-(2-Fluoro-3-methoxyphenyl)-2-methoxy-6,7-dimethylimidazo[1,5-a]pyrido[3,2-e]pyrazine] and `COc1ccc2nc(C)c3c(C)nc(-c4cccnc4OC)n3c2n1` [Example 29, 2-Methoxy-9-(2-methoxypyridin-3-yl)-6,7-dimethylimidazo[1,5-a]pyrido[3,2-e]pyrazine] fall in the same range of IC50: 10 to 100 nM for the first, 10 to 100 nM for the second.

First: COc1ccc2nc(C)c3c(C)nc(-c4cncnc4)n3c2n1 [Example 27, 2-Methoxy-6,7-dimethyl-9-pyrimidin-5-ylimidazo[1,5-a]pyrido[3,2-e]pyrazine]
Second: COc1ccc(-c2nc(C)c3c(C)nc4ccc(OC)nc4n23)cn1 [Example 28, 2-Methoxy-9-(6-methoxypyridin-3-yl)-6,7-dimethylimidazo[1,5-a]pyrido[3,2-e]pyrazine]
The IC50 of the first is lower: less than 10 nM for the first, 10 to 100 nM for the second.

Work on `COc1ccc2nc(C)c3c(C)nc(-c4cnccc4OC)n3c2n1` [Example 30, 2-Methoxy-9-(4-methoxypyridin-3-yl)-6,7-dimethylimidazo[1,5-a]pyrido[3,2-e]pyrazine] yielded an IC50 of 10 to 100 nM.

Same assay, conditions: Table 8; read-out: PDE10 pig IC50

`COc1ccc2nc(Cl)c3c(C)nc(CCC(F)(F)F)n3c2n1` [Example 41, 6-Chloro-2-methoxy-7-methyl-9-(3,3,3-trifluoropropyl)imidazo[1,5-a]pyrido[3,2-e]pyrazine] and `COc1ccc2nc(C)c3c(C)nc(CCC(F)(F)F)n3c2n1` [Example 42, 2-Methoxy-6,7-dimethyl-9-(3,3,3-trifluoropropyl)imidazo[1,5-a]pyrido[3,2-e]pyrazine] fall in the same range of IC50: 10 to 100 nM for the first, 10 to 100 nM for the second.

Compared with `COc1ccc2nc(N3CCC3)c3c(C)nc(CCC(F)(F)F)n3c2n1` [Example 43, 6-Azetidin-1-yl-2-methoxy-7-methyl-9-(3,3,3-trifluoropropyl)imidazo[1,5-a]pyrido[3,2-e]pyrazine], `COc1ccc2nc(N)c3c(C)nc(CCC(F)(F)F)n3c2n1` [Example 44, 2-Methoxy-7-methyl-9-(3,3,3-trifluoropropyl)imidazo[1,5-a]pyrido[3,2-e]pyrazin-6-amine] is lower in IC50: greater than 100 nM for the first, 10 to 100 nM for the second.

`COc1ccc2nc(NS(C)(=O)=O)c3c(C)nc(CCC(F)(F)F)n3c2n1` [Example 45, N-[2-Methoxy-7-methyl-9-(3,3,3-trifluoropropyl)imidazo[1,5-a]pyrido[3,2-e]pyrazin-6-yl]methanesulfonamide] and `COc1ccc2nc(C)c3c(C)nc(-c4ccsc4)n3c2n1` [Example 56, 2-Methoxy-6,7-dimethyl-9-(3-thienyl)imidazo[1,5-a]pyrido[3,2-e]pyrazine] fall in the same range of IC50: 10 to 100 nM for the first, 10 to 100 nM for the second.

`COc1ccc2nc(C)c3c(C)nc(-c4cc(Cl)ccc4Cl)n3c2n1` [Example 47, 9-(2,5-Dichlorophenyl)-2-methoxy-6,7-dimethylimidazo[1,5-a]pyrido[3,2-e]pyrazine] and `COc1ccc2nc(C)c3c(C)nc(-c4cccc(Cl)c4)n3c2n1` [Example 48, 9-(3-Chlorophenyl)-2-methoxy-6,7-dimethylimidazo[1,5-a]pyrido[3,2-e]pyrazine] cannot be ordered by IC50: less than 10 nM for the first, less than 10 nM for the second.

First: COc1ccc2nc(C)c3c(C)nc(-c4ccccc4OC)n3c2n1 [Example 52, 2-Methoxy-9-(2-methoxyphenyl)-6,7-dimethylimidazo[1,5-a]pyrido[3,2-e]pyrazine]
Second: COc1ccc2nc(C)c3c(C)nc(-c4ccccc4OC(C)C)n3c2n1 [Example 54, 9-(2-Isopropoxyphenyl)-2-methoxy-6,7-dimethylimidazo[1,5-a]pyrido[3,2-e]pyrazine]
The IC50 of the first is lower: 10 to 100 nM for the first, greater than 100 nM for the second.

`COc1ccc(-c2nc(C)c3c(C)nc4ccc(OC)nc4n23)cc1` [Example 55, 2-Methoxy-9-(4-methoxyphenyl)-6,7-dimethylimidazo[1,5-a]pyrido[3,2-e]pyrazine] and `COc1ccc2nc(C)c3c(C)nc(-c4ccc(C)cc4)n3c2n1` [Example 59, 2-Methoxy-6,7-dimethyl-9-(4-methylphenyl)imidazo[1,5-a]pyrido[3,2-e]pyrazine] fall in the same range of IC50: 10 to 100 nM for the first, 10 to 100 nM for the second.

`COc1ccc2nc(C)c3c(C)nc(-c4ccoc4)n3c2n1` [Example 58, 9-(3-Furyl)-2-methoxy-6,7-dimethylimidazo[1,5-a]pyrido[3,2-e]pyrazine] and `COc1ccc2nc(C)c3c(C)nc(-c4ccco4)n3c2n1` [Example 60, 9-(2-Furyl)-2-methoxy-6,7-dimethylimidazo[1,5-a]pyrido[3,2-e]pyrazine] fall in the same range of IC50: 10 to 100 nM for the first, 10 to 100 nM for the second.
